Experimental data from patent US20150111781A1, “ANALYZING SEMAPHORIN7A (Sema7A) LEVELS FOR ASSESSING CANCER METASTATIC POTENTIAL” (Florida Atlantic University, priority 2012, published 2015).

Test system: MCF-10A cells
Assay: TGF-β1 induction of Sema7A gene expression by qRT-PCR
Format: cell-based, human
Settings: 5 ng/ml, within 18 hours, vs vehicle
Experimental: We then wanted to establish an in vitro system to study the functional role of Sema7A in the breast epithelia. To do so, we assayed the Sema7A expression in human breast cell lines with varying degrees of malignancy using quantitative real-time PCR (qRT-PCR).
We treated MCF-10A cells with 5 ng/ml of TGF-β1 or vehicle for 18, 24 or 36 hours. MCF-10A cells were then assayed for Sema7A gene expression by qRT-PCR. […] TGF-β1 is a key inducer of epithelial to mesenchymal transition (EMT) and Sema7A could serve as a down-stream effecter of TGF-β1 in EMT.

“TGF-β1: Transforming growth factor beta-1, used to induce Sema7A expression in MCF-10A breast epithelial cells” was tested, and the “expression of Sema7A” value was “significantly increased”.
